US6586425B2, “Cytoskeletal active agents for glaucoma therapy” (Wisconsin Alumni Research Foundation, priority 1996, dated 2003)
Several values for one entry are separate records, joined by “and”; a condition that tells them apart may be missing. Equal values may be shown once. Read-outs that look alike come from different tables or passages of the source.

Experiments:
living monkey eyes [1] = assay: Aqueous humor flow and corneal endothelial transfer coefficient ka by fluorophotometry; settings: 42 μg LAT-A topical
living monkey eyes [2] = assay: Slit lamp biomicroscopy (ocular tolerability); format: in vivo, cynomolgus monkeys (Macaca fascicularis)
living monkey eyes [3] = assay: Aqueous humor protein concentration (Lowry method); format: in vivo, cynomolgus monkeys (Macaca fascicularis); settings: 42 μg LAT-A topical
Text: Approximately 5.5 hr after LAT-A and vehicle (25% DMSO) administration, or approximately 6.5 hr after LAT-B and vehicle (25% DMSO) administration, when AHF measurements had been completed, a sample of AH was obtained under a Zeiss surgical microscope, using a 30-gauge needle connected via polyethylene tubing to a tuberculin syringe. The needle was threaded through the corneal stroma for 6 mm, then directed into the AC so that the wound was self-sealing. AH entered the tubing by very gentle suction with the tuberculin syringe; only occasionally was brief mild pressure on the cornea with a needle holder required to promote the initial flow of AH into the tubing via the very thin needle. Approximately 60-80 μl of AH was removed, leaving a shallow but not completely flattened AC. In separate protocols with different monkeys, AH was similarly obtained 2 hr after 42 μg LAT-A or 1 hr after 4 μg LAT-B to one eye and vehicle to the opposite eye. The AH samples were stored at −20° C. for up to 24 hr. The protein concentration in each sample was assayed by the Lowry method, as known in the art (See e.g., Lowry et al., J. Biol. Chem., 193:265-275[1951]; and Peterson et al., Anal. Biochem., 100:201-220[1979]), in duplicate, and the result averaged. Duplicate sets of protein standards containing 0, 1, 3, 5, 10, 20, 40, or 60 μg bovine serum albumin (BSA) were assayed by the same method and results averaged and graphed to give a linear equation that was used to estimate the protein content in the AH samples. The optical density of each sample was measured at 660 nm using a Spectronic 20 Spectrophotometer (Bausch and Lomb).

living monkey eye = settings: in vivo
corneal endothelium = settings: for Cell count Exp, drug eye / Cell count Exp, drug/Vehicle / Cell count Exp, drug−Vehicle / Cell count Exp/BL, drug eye / Cell count Exp/BL, drug/Vehicle / Cell count Exp/BL, drug−Vehicle: 21 μg LAT-A topical, n=4
living monkey eyes [4] = assay: Slit lamp biomicroscopy (ocular tolerability); format: in vivo, cynomolgus monkeys (Macaca fascicularis); remark: listed apart in the source
Method: e) Ocular Tolerability/Toxicity: Ocular exams, including slit lamp biomicroscopy (Zeiss or Haag-Streit), gonioscopy, and binocular indirect ophthalmoscopy (American Optical or Keeler), were performed by a trained ophthalmologist, using when necessary contact lenses specially fabricated for the small monkey eye (Kaufman and Wallow, Exp. Eye Res., 40:883-885[1985]). In addition, specular microscopy was used to evaluate drug effects on the corneal endothelium.
The AC of both eyes of was cannulated with a branched needle as above, after which baseline facility measurements were taken for 35-45 min. With reservoirs closed, 2×5 μl drops of 200 μM (˜0.8 μg) or 4×5 μl drops of 500 μM (˜4.0 μg) LAT-B were given to one eye of the prone monkey, allowing 60-90 sec between drops. […] Vehicle (10 or 25% DMSO respectively) was given simultaneously to the opposite eye in a similar manner. The doses were chosen to give […] and 1 μM LAT-B concentrations respectively in the 100 μl monkey AC (See e.g., Erickson-Lamy et al., Arch. Opthalmol., 102:1815-1820[1984]), assuming 1% penetration and no initial drug loss from the AC (Asseff et al., Amer. J. Ophthalmol., 75:212-215[1973]; Harris, in Leopold (ed.), Symposium on Ocular Therapy, C. V. Mosby, St. Louis, Mo., [1968], pp. 96-105; Janes and Stiles, Arch. Ophthahnol., 62:69-74[1959]). The perfusion system remained closed for 2 hr, after which facility measurements were taken for 90 min. Biomicroscopy was performed by an ophthalmologist before and 3, 7 and 14 days after drug administration.
For slit lamp biomicroscopy, a trained ophthalmologist examined all eyes by slit lamp, for integrity of the corneal epithelium and endothelium, presence of flare or cells in the anterior chamber and clarity of the lens. All animals were free of ocular abnormalities when studied.

## C/C1=C/C(=O)O[C@@H]2C[C@@H](CC[C@H](C)/C=C\C=C\CC1)O[C@@](O)([C@@H]1CSC(=O)N1)C2 [LAT-A]
Living monkey eyes [1]
  relative difference in ka between first and second 3-hr intervals: 27±12%
Living monkey eyes [1]; first 3 hr
  increase in ka: 106±16%
Living monkey eyes [1]; first 3 hr, n=8
  increase in apparent AHF relative to vehicle, adjusted for baseline: 87% and 87±13%
Living monkey eyes [1]; overall, n=8
  increase in ka: 94±9%
Living monkey eyes [1]; second 3 hr
  AHF, drug- vs vehicle-treated eyes: no significant differences
  increase in ka: 68±10%
Living monkey eyes [1]; hour 0.5 to 3.0, n=8
  AHF Rx, LAT-A eye: 3.48 microliters per minutes
  AHF Rx, LAT-A/Vehicle: 1.94
  AHF Rx/BL, LAT-A eye: 1.82
  AHF Rx/BL, LAT-A/Vehicle: 1.87
  ka Rx, LAT-A eye: 0.00996 min⁻¹
  ka Rx, LAT-A/Vehicle: 2.15
  ka Rx/BL, LAT-A eye: 1.84
  ka Rx/BL, LAT-A/Vehicle: 2.06
Living monkey eyes [1]; hour 0.5 to 6.0, n=8
  AHF Rx, LAT-A eye: 2.65 microliters per minutes
  AHF Rx, LAT-A/Vehicle: 1.51
  AHF Rx/BL, LAT-A eye: 1.38
  AHF Rx/BL, LAT-A/Vehicle: 1.51
  ka Rx, LAT-A eye: 0.00961 min⁻¹
  ka Rx, LAT-A/Vehicle: 1.98
  ka Rx/BL, LAT-A eye: 1.72
  ka Rx/BL, LAT-A/Vehicle: 1.94
Living monkey eyes [1]; hour 3.5 to 6.0, n=8
  AHF Rx, LAT-A eye: 1.87 microliters per minutes
  AHF Rx, LAT-A/Vehicle: 1.00
  AHF Rx/BL, LAT-A eye: 1.00
  AHF Rx/BL, LAT-A/Vehicle: 1.01
  ka Rx, LAT-A eye: 0.00925 min⁻¹
  ka Rx, LAT-A/Vehicle: 1.69
  ka Rx/BL, LAT-A eye: 1.59
  ka Rx/BL, LAT-A/Vehicle: 1.68
Living monkey eyes [2]; higher dose of LAT-A (42 μg)
  recovery of endothelial refractile spots: most recovered by 10 hr
Living monkey eyes [2]; lower dose of LAT-A (21 μg)
  recovery of endothelial refractile spots: recovered almost completely by 6 hr
Living monkey eyes [2]; one to 5 hr after topical drug
  corneal endothelial cell borders: indistinct
Living monkey eyes [3]; 5.5 hr
  [Protein]AC vs vehicle-treated eyes: no difference in protein concentration
Living monkey eyes [3]; two hr, n=7
  [Protein]AC higher than in vehicle-treated eyes: 25±9%
Living monkey eye
  BL2/BL1, Rx eye: 1.24 ± 0.19
  BL2/BL1, Rx/Cont: 1.12 ± 0.15
  Baseline facility BL2, Rx eye: 0.42 ± 0.06 μl/min/mmHg
  Baseline facility BL2, Rx/Cont: 1.07 ± 0.17
  effect on facility: probably ineffective
  reversibility of the facility-effect: minimal
Corneal endothelium; 3 days
  Cell count Exp, drug eye: 2488 ± 63 cell per square millimeter
  Cell count Exp, drug/Vehicle: 1.02 ± 0.03
  Cell count Exp, drug−Vehicle: 44 ± 62 cell per square millimeter
  Cell count Exp/BL, drug eye: 0.98 ± 0.01
  Cell count Exp/BL, drug/Vehicle: 1.06 ± 0.02
  Cell count Exp/BL, drug−Vehicle: 0.05 ± 0.10
Corneal endothelium; 7 days
  Cell count Exp, drug eye: 2488 ± 97 cell per square millimeter
  Cell count Exp, drug/Vehicle: 0.98 ± 0.06
  Cell count Exp, drug−Vehicle: −69 ± 140 cell per square millimeter
  Cell count Exp/BL, drug eye: 0.98 ± 0.03
  Cell count Exp/BL, drug/Vehicle: 1.02 ± 0.08
  Cell count Exp/BL, drug−Vehicle: 0.01 ± 0.07
Corneal endothelium; 14 days
  Cell count Exp, drug eye: 2694 ± 28 cell per square millimeter
  Cell count Exp, drug/Vehicle: 1.01 ± 0.06
  Cell count Exp, drug−Vehicle: 0 ± 147 cell per square millimeter
  Cell count Exp/BL, drug eye: 1.06 ± 0.03
  Cell count Exp/BL, drug/Vehicle: 1.04 ± 0.03
  Cell count Exp/BL, drug−Vehicle: 0.04 ± 0.03
Corneal endothelium; 21 μg LAT-A, day 3
  cell densities vs baseline: essentially the same as at baseline
Corneal endothelium; 42 μg LAT-A, day 3
  cell densities vs baseline or contralateral eyes: slightly (but not significantly) lower cell densities than baseline or contralateral eyes
Corneal endothelium; LAT-A either dose, day 7
  cell density and morphology: cell density and morphology had returned to baseline
Corneal endothelium; either dose of LAT-A (21 or 42 μg), 1 or 3 hr
  countability of corneal endothelial cells: could not be counted
Living monkey eyes [4]; after topical drug
  lens appearance: always appeared normal
Living monkey eyes [4]; topical LAT-A (21 or 42 μg) or LAT-B (4 μg) in 25% DMSO
  corneal epithelium at slit lamp: mild transient corneal epithelial cloudiness
Living monkey eyes [4]; topical, recovered by 24-48 hr
  eyes that developed flare (1-2+ on a scale of 0-4+): Four LAT-A- treated eyes
